Reference: EP0043811A1, “Indolo-naphthyridines and their use as medicaments” (OMNICHEM Société anonyme, priority 1980, dated 1982)

Legend:
[1] = test system: souris, de souche Charles River; assay: Hypobaric anoxia test in mice (survival time); type: in vivo; settings: ratio of DL50/DE50 of the product to DL50/DE50 of vincamine; DE50 = dose raising mean survival time by 50 %; p.o. 30 min before test; 190 mm Hg (5,25 % oxygen)
Experimental: Des souris de même sexe, de souche Charles River, pesant environ 20 + 2 g sont réparties en trois lots de 10 animaux. Les lots 1 et 2 comportent les animaux traités, c'est à dire ayant reçu la substance à tester de l'invention. Un troisième lot comporte des animaux témoins.
Les composés étudiés sont administrés p.o. 30 minutes avant l'essai. Les animaux sont placés dans une atmosphère appauvrie en oxygène par réalisation d'un vide partiel (190 mm Hg, correspondant à 5,25 % d'oxygène), ces conditions étant obtenues en 30 secondes). On mesure le temps de survie des souris au moyen d'un chronomètre. Les agents capables de favoriser l'oxygénation tissulaire et en particulier cérébrale, entraînent un accroissement du temps de survie et l'on peut exprimer par la dose efficace 50 % (DE50), la dose qui augmente de 50 % le temps de survie moyen des animaux placés dans les conditions décrites ci-dessus.
L'indice vincaminique correspond au rapport de la ^DL50/D^E50 du produit à la DL5ODE50 de la vincamine. Le tableau suivant rassemble les doses léthales et les indices vincaminiques observés pour divers composés de la présente invention.

[2] = Acute toxicity (LD50) in mice, intravenous; settings: mouse, in vivo, read-out: DL50 iv
Source text: Les composés de l'invention ont été administrés sous forme de chlorhydrate par voie intraveineuse à des souris de souche Charles River. Les doses létales 50 % (DL50) ont été déterminées graphiquement selon la méthode de Lichtfield et Wilcoxon (J. Pharmacol.Exp. Thérap. […]).

[3] = test system: chien anesthésié au Nembutal; assay: Haemodynamics and cerebral oxygen consumption in the dog anaesthetised with Nembutal; type: in vivo
Source text: Chez le chien anesthésié au Nembutal, les composés de l'invention, en particulier Ib', augmentent les débits sanguins artériels des artères fémorales et vertébrales et stimulent de façon marquée (+ 50 %) la consommation apparente du cerveau en oxygène. L'effet sur la fréquence cardiaque est par ailleurs peu marqué, contrairement au cas de la vincamine.

[4] = test system: ptose palpébrale induite par la réserpine; assay: Reserpine-induced palpebral ptosis test in mice; type: in vivo, souris; settings: mouse
Source text: Le canthène Ib s'est en outre révélé très actif au test à la ptose palpébrale induite par la réserpine che la souris. […] La combinaison des propriétés antianoxiques et antidépressives confèrent aux composés de l'invention un intérêt thérapeutique original.

[5] = test system: monoamine oxydase; assay: Monoamine oxidase inhibitor (IMAO) character, method not described

Compound CCN1CCc2c3n(c4ccccc24)C(O)CCC31 (stereo not shown) [Exemple 2, Hydroxy-6 éthyl-3 1,2,3,3a,4,5 hexahydro 6H indolo (3, 2,1, -de) 1,5 naphtyridine] has an ind.vincam. hypobare [1] of 2 and an LD50 [2] of 21 mg/kg.

With CCN1CCc2c3n(c4ccccc24)C=CCC31 (stereo not shown) [Exemple 3, Ethyl-3 tétrahydro-1,2,3,3a 4H indolo (3,2,1-de) 1,5 naphtyridine] the “débits sanguins artériels des artères fémorales et vertébrales” value [3] was “augmentent”, the “effet sur la fréquence cardiaque” value ([3]; stated in contrast to vincamine) was “peu marqué” and the ind.vincam. hypobare [1] was 2 (Ib'). The LD50 [2] was 46 mg/kg, the “test à la ptose palpébrale induite par la réserpine” value [4] was “très actif” and the “caractéristique d'inhibiteur de monoamine oxydase (IMAO)” value [5] was “aucune caractéristique d'inhibiteur de monoamine oxydase”.

With CCN1CCc2c3n(c4ccccc24)CCCC31 (stereo not shown) [Exemple 4, Ethyl-3 hexahydro-1,2,3,3a,4,5-6H indolo (3,2,1-de) 1,5 naphtyridine] the ind.vincam. hypobare [1] was 2 and the LD50 [2] was 14 mg/kg.
